Test results: ChEMBL document CHEMBL2094260, “Malaria Box Tuberculosis Screening Data”

Test system: Mycobacterium tuberculosis
Assay: MMV: Screen against Mtb, single point, non replicating, at 25uM
Format: functional

Going from COc1ccccc1NC1=C(N2CCCCC2)C(=O)c2ccccc2C1=O to COc1ccc(-c2cc3c(nn2)-c2ccccc2C3=O)cc1, the inhibition at 25 µM rises from 24.8% to 26.7%.

First: Cc1ccnc(NC(c2cccc(OCc3ccccc3)c2)c2ccc3cccnc3c2O)c1 (stereo not drawn)
Second: CCOc1cccc(C(=O)Nc2ccc(-c3nc4ccccc4[nH]3)cc2)c1
The inhibition at 25 µM of the first is higher: 22.3% for the first, 18% for the second.

Compared with O=C(O)C1Cc2c([nH]c3ccccc23)C(c2ccc(Cl)cc2Cl)N1 (stereo not drawn), Nc1nc(Nc2cccc(F)c2)nc2ccccc12 is higher in inhibition at 25 µM: 8.72% for the first, 9.12% for the second.

Compared with Cc1ccc(C)c(Cn2c(N3CCC(C(=O)NCc4cccs4)CC3)nc3ccccc32)c1, Cc1ccc(CN2CCC(C(=O)Nc3ccc(-c4cc5ccccc5[nH]4)cc3)CC2)o1 is higher in inhibition at 25 µM: 10.4% for the first, 22.9% for the second.

Going from Nc1ccn([C@@H]2O[C@H](CO)[C@@H](O)[C@H]2O)c(=O)n1 [CYTIDINE] to CCOC(=O)C1=C(C)N=c2sc(=Cc3cc(Cl)ccc3O)c(=O)n2C1c1ccc(OC)cc1 (stereo not drawn), the inhibition at 25 µM falls from 14.6% to 13.4%.

Compared with Oc1ccccc1CN1CCN(C(c2ccccc2)c2ccccc2)CC1, Cc1sc(NC(=O)c2ccccc2)c(C(c2cccs2)N2CCN(c3ccccc3)CC2)c1C (stereo not drawn) is lower in inhibition at 25 µM: 28.8% for the first, 13% for the second.

Going from O=C1c2ccccc2-c2nnc(-c3ccc(Br)cc3)cc21 to O=C1c2ccccc2C2=Nc3ccccc3SC(c3cccc(F)c3)C12 (stereo not drawn), the inhibition at 25 µM falls from 1.49% to -5.43%.

First: OC1CCCCC1C1(NC(=S)Nc2ccccc2)CCCCC1 (stereo not drawn)
Second: O=C(NC1CCCCC1)C(c1cccs1)N(CCc1ccccc1)C(=O)c1ccco1 (stereo not drawn)
The inhibition at 25 µM of the first is higher: 13.9% for the first, 2.2% for the second.

Compared with COc1ccc(N2CCN(C(CNC(=O)CC(C)(C)C)c3ccc4c(c3)OCO4)CC2)cc1 (stereo not drawn), COc1ccc(C(=O)C(CCC(CNC(C)(C)C)C(=O)c2ccc(OC)cc2)CNC(C)(C)C)cc1 (stereo not drawn) is higher in inhibition at 25 µM: -8.45% for the first, 21% for the second.

First: COc1cc2c(cc1OC)C1=NNC(=O)C1=NC(C)(C)C2
Second: COc1ccc(-c2nonc2NC(=O)c2cccc(Cl)c2)cc1OC
The inhibition at 25 µM of the first is higher: 26.7% for the first, 15.7% for the second.

Compared with COc1ccc(OC)c(C2C3=C(CC(C)(C)CC3=O)N(c3ccc(Cl)c(Cl)c3)C3=C2C(=O)CC(C)(C)C3)c1, COc1cc(CNCCc2ccc(Cl)cc2)cc(OC)c1O is higher in inhibition at 25 µM: 7.7% for the first, 35.9% for the second.

Going from c1ccc2c(NCCCCCCNc3c4c(nc5ccccc35)CCCC4)c3c(nc2c1)CCCC3 to CCCCCCc1cc2cc(-c3nc4ccccc4[nH]3)c(=Nc3ccccc3C)oc2cc1O, the inhibition at 25 µM rises from 17.8% to 28.5%.

Going from CCOc1ccc(Nc2ccnc3cc(Cl)ccc23)cc1 to COc1ccc(C(=O)Nc2ccc(Cl)cc2C(=O)Nc2ccncc2)cc1, the inhibition at 25 µM rises from 8.59% to 30.9%.

Compared with Cc1cc(NC(=O)c2ccc(-c3ccccc3)cc2)no1, O=C(Nc1cccc(-c2nc3ccccc3[nH]2)c1)c1cccc(NC(=O)c2ccco2)c1 is higher in inhibition at 25 µM: 13.8% for the first, 46.1% for the second.

Compared with COc1ccc(CCN2CCC(CN(C)Cc3cnn(-c4ccccc4)c3)CC2)cc1, CCOc1ccc(C2N(C)c3ccccc3N2C)cc1 is lower in inhibition at 25 µM: 15% for the first, 11.7% for the second.

Going from CC(=O)c1sc(NC(=O)Nc2ccc(C)cc2C)nc1C to CCc1ccc(Nc2cc(C)c3ccc(O)cc3n2)cc1, the inhibition at 25 µM rises from 6.64% to 17.3%.

Compared with Cc1cccc(N2C(=O)C3C(C2=O)C2(c4ccccc4)C(=O)C3(c3ccccc3)C(c3ccc4c(c3)OCO4)=C2c2ccc3c(c2)OCO3)c1 (stereo not drawn), COc1cccc(C=Cc2nc(=O)c3ccccc3o2)c1OC is lower in inhibition at 25 µM: 16.4% for the first, 11.5% for the second.

First: CCCCC(O)(c1ccc(Cl)cc1)C(CN1CCOCC1)c1ccc(Cl)cc1 (stereo not drawn)
Second: CC(=O)NCCc1nc2ccccc2n1Cc1ccc(C(C)C)cc1
The inhibition at 25 µM of the first is higher: 15.2% for the first, 8.72% for the second.

Going from OC(CNC1CCCCC1)Cn1c2ccc(I)cc2c2cc(I)ccc21 (stereo not drawn) to CCOC(=O)c1cnc2ccc(OC)cc2c1NCc1ccccc1, the inhibition at 25 µM rises from 10.9% to 23%.

COCCN(C(=O)Cc1cccs1)C(C(=O)NCc1ccc(OC)cc1)c1ccc(C(C)C)cc1 (stereo not drawn) gave an inhibition at 25 µM of 31.4%.

Test system: Mycobacterium tuberculosis
Assay: MMV: Screen against Mtb, single point, replicating, at 25uM
Format: functional

Going from COc1ccccc1NC1=C(N2CCCCC2)C(=O)c2ccccc2C1=O to COc1ccc(-c2cc3c(nn2)-c2ccccc2C3=O)cc1, the inhibition at 25 µM rises from 13.3% to 39%.

Compared with Cc1ccnc(NC(c2cccc(OCc3ccccc3)c2)c2ccc3cccnc3c2O)c1 (stereo not drawn), CCOc1cccc(C(=O)Nc2ccc(-c3nc4ccccc4[nH]3)cc2)c1 is higher in inhibition at 25 µM: 6.19% for the first, 15.5% for the second.

First: O=C(O)C1Cc2c([nH]c3ccccc23)C(c2ccc(Cl)cc2Cl)N1 (stereo not drawn)
Second: Nc1nc(Nc2cccc(F)c2)nc2ccccc12
The inhibition at 25 µM of the first is higher: 13.7% for the first, 13.4% for the second.

First: Cc1ccc(C)c(Cn2c(N3CCC(C(=O)NCc4cccs4)CC3)nc3ccccc32)c1
Second: Cc1ccc(CN2CCC(C(=O)Nc3ccc(-c4cc5ccccc5[nH]4)cc3)CC2)o1
The inhibition at 25 µM of the first is higher: 22% for the first, 8.26% for the second.

Going from Nc1ccn([C@@H]2O[C@H](CO)[C@@H](O)[C@H]2O)c(=O)n1 [CYTIDINE] to CCOC(=O)C1=C(C)N=c2sc(=Cc3cc(Cl)ccc3O)c(=O)n2C1c1ccc(OC)cc1 (stereo not drawn), the inhibition at 25 µM rises from -3.06% to -0.235%.

Going from Oc1ccccc1CN1CCN(C(c2ccccc2)c2ccccc2)CC1 to Cc1sc(NC(=O)c2ccccc2)c(C(c2cccs2)N2CCN(c3ccccc3)CC2)c1C (stereo not drawn), the inhibition at 25 µM falls from 33.3% to 7.6%.

Going from O=C1c2ccccc2-c2nnc(-c3ccc(Br)cc3)cc21 to O=C1c2ccccc2C2=Nc3ccccc3SC(c3cccc(F)c3)C12 (stereo not drawn), the inhibition at 25 µM falls from 9.33% to 7.45%.

Going from OC1CCCCC1C1(NC(=S)Nc2ccccc2)CCCCC1 (stereo not drawn) to O=C(NC1CCCCC1)C(c1cccs1)N(CCc1ccccc1)C(=O)c1ccco1 (stereo not drawn), the inhibition at 25 µM rises from 7.76% to 22.2%.

First: COc1ccc(N2CCN(C(CNC(=O)CC(C)(C)C)c3ccc4c(c3)OCO4)CC2)cc1 (stereo not drawn)
Second: COc1ccc(C(=O)C(CCC(CNC(C)(C)C)C(=O)c2ccc(OC)cc2)CNC(C)(C)C)cc1 (stereo not drawn)
The inhibition at 25 µM of the first is lower: 0.0784% for the first, 10.9% for the second.

Going from COc1cc2c(cc1OC)C1=NNC(=O)C1=NC(C)(C)C2 to COc1ccc(-c2nonc2NC(=O)c2cccc(Cl)c2)cc1OC, the inhibition at 25 µM falls from 11.3% to 9.93%.

First: COc1ccc(OC)c(C2C3=C(CC(C)(C)CC3=O)N(c3ccc(Cl)c(Cl)c3)C3=C2C(=O)CC(C)(C)C3)c1
Second: COc1cc(CNCCc2ccc(Cl)cc2)cc(OC)c1O
The inhibition at 25 µM of the first is higher: 5.56% for the first, 0.392% for the second.

First: c1ccc2c(NCCCCCCNc3c4c(nc5ccccc35)CCCC4)c3c(nc2c1)CCCC3
Second: CCCCCCc1cc2cc(-c3nc4ccccc4[nH]3)c(=Nc3ccccc3C)oc2cc1O
The inhibition at 25 µM of the first is higher: 32.7% for the first, 4.31% for the second.

First: CCOc1ccc(Nc2ccnc3cc(Cl)ccc23)cc1
Second: COc1ccc(C(=O)Nc2ccc(Cl)cc2C(=O)Nc2ccncc2)cc1
The inhibition at 25 µM of the first is higher: 54.6% for the first, 4.46% for the second.

First: Cc1cc(NC(=O)c2ccc(-c3ccccc3)cc2)no1
Second: O=C(Nc1cccc(-c2nc3ccccc3[nH]2)c1)c1cccc(NC(=O)c2ccco2)c1
The inhibition at 25 µM of the first is lower: 8.72% for the first, 21.2% for the second.

Compared with COc1ccc(CCN2CCC(CN(C)Cc3cnn(-c4ccccc4)c3)CC2)cc1, CCOc1ccc(C2N(C)c3ccccc3N2C)cc1 is lower in inhibition at 25 µM: 21.3% for the first, 8.11% for the second.

First: CC(=O)c1sc(NC(=O)Nc2ccc(C)cc2C)nc1C
Second: CCc1ccc(Nc2cc(C)c3ccc(O)cc3n2)cc1
The inhibition at 25 µM of the first is higher: 10.3% for the first, 4.16% for the second.

Compared with Cc1cccc(N2C(=O)C3C(C2=O)C2(c4ccccc4)C(=O)C3(c3ccccc3)C(c3ccc4c(c3)OCO4)=C2c2ccc3c(c2)OCO3)c1 (stereo not drawn), COc1cccc(C=Cc2nc(=O)c3ccccc3o2)c1OC is higher in inhibition at 25 µM: 23.1% for the first, 40.6% for the second.

Compared with CCCCC(O)(c1ccc(Cl)cc1)C(CN1CCOCC1)c1ccc(Cl)cc1 (stereo not drawn), CC(=O)NCCc1nc2ccccc2n1Cc1ccc(C(C)C)cc1 is lower in inhibition at 25 µM: 17.3% for the first, 2.04% for the second.

First: OC(CNC1CCCCC1)Cn1c2ccc(I)cc2c2cc(I)ccc21 (stereo not drawn)
Second: CCOC(=O)c1cnc2ccc(OC)cc2c1NCc1ccccc1
The inhibition at 25 µM of the first is lower: 16.9% for the first, 40.2% for the second.

COCCN(C(=O)Cc1cccs1)C(C(=O)NCc1ccc(OC)cc1)c1ccc(C(C)C)cc1 (stereo not drawn) gave an inhibition at 25 µM of 10.2%.
